This assay addresses T1, human p38 kinase alpha (Homo sapiens, UniProt Q16539).
T1 construct: GST (N, cleaved yes); made in house; host or cells: E. coli DH10B
Description: p38 kinase in vitro assay, phosphorylation of biotinylated PHAS-I with 32P-ATP. In kind it is biochemical. The conditions noted are these: for IC50: read-out: P38 alpha kinase IC50.

Setting [1] is: in vitro P38-alpha kinase inhibition.

Structures are written as SMILES. Like-named read-outs stand apart in the source and are kept apart here. Bounds are passed on as bounds.

A word on the IC50: it is the concentration that gives 50% inhibition.

T1 sequence (Q16539 whole entry): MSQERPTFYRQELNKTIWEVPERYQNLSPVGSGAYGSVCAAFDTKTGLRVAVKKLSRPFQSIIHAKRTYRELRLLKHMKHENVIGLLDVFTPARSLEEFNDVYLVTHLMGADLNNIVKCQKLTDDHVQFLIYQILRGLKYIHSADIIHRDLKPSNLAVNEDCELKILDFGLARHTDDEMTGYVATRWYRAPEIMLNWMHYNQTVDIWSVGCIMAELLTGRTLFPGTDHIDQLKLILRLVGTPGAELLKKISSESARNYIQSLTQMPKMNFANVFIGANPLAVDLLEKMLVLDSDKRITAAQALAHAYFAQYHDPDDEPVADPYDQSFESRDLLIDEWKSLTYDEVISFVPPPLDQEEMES

In the case of `O=S(=O)(NC(Cc1ccccc1)c1[nH]nc(-c2ccc(F)cc2)c1-c1ccncc1)C(F)(F)F` (stereo not shown) [Example B-0713], the IC50 under setting [1] was 4300 nM.

Consider `CC(NC(=O)C1CCCC1)c1[nH]nc(-c2ccc(F)cc2)c1-c1ccncc1` (stereo not shown) [Example B-0553], for which the IC50 under setting [1] was determined as 1440 nM.

For `O=C(NCCCc1[nH]nc(-c2ccc(F)cc2)c1-c1ccncc1)C1CCCC1` [Example B-1181], the “P38 alpha kinase % inhib @ conc. (uM)” value (@ 1.0 uM) came to 79.0% @.

For `CC(NS(=O)(=O)c1ccccc1F)c1[nH]nc(-c2ccc(F)cc2)c1-c1ccncc1` (stereo not shown) [Example B-0569], the IC50 under setting [1] was determined as 150 nM.

As for `O=S(=O)(c1ccc(Br)cc1)N1CCC(c2[nH]nc(-c3ccc(F)cc3)c2-c2ccncc2)CC1` [Example B-1472], for the setting “in vitro P38-alpha kinase”, the IC50 is 930 nM.

On to `CC(C)NC(=O)NCCCc1[nH]nc(-c2ccc(F)cc2)c1-c1ccncc1` [Example B-1206], for which the “P38 alpha kinase % inhib @ conc.” value (@ 1.0 uM) worked out at 81.0% @.

For the compound `COCC(=O)N[C@H]1CC[C@@H](C2=NN=C(c3ccc(Cl)cc3)C2c2ccncc2)CC1` (stereo partly drawn) [Example C-96, 5-cis-[4-N-(METHOXYACETYL)AMINOCYCLOHEXYL]-4-(4-PYRIDYL)-3-(4-CHLOROPHENYL)PYRAZOLE], the IC50 worked out at 77 nM.

On to `C[C@@H](NS(=O)(=O)c1cccc(Br)c1)c1[nH]nc(-c2ccc(F)cc2)c1-c1ccncc1` [Example B-0455], for which the IC50 under setting [1] is under 100 nM.

Take `CC(NC(=O)c1cccc(Cl)c1)c1[nH]nc(-c2ccc(F)cc2)c1-c1ccncc1` (stereo not shown) [Example B-0702]: the IC50 under setting [1] is 36 nM.

As to `Cc1noc(C)c1C(=O)N1CCC(c2[nH]nc(-c3ccc(F)cc3)c2-c2ccncc2)CC1` [Example B-1403], the IC50 (in vitro P38-alpha kinase) worked out at 4540 nM.

On to `O=C(NCc1[nH]nc(-c2ccc(F)cc2)c1-c1ccncc1)c1ccc(Br)cc1` [Example B-0007], for which the inhibition at 1 µM (@ 1.0 uM, read-out: P38 alpha kinase % inhib @ conc.) was 74%.

Regarding `CC(C)OC(=O)NCCCc1[nH]nc(-c2ccc(F)cc2)c1-c1ccncc1` [Example B-1234], the “P38 alpha kinase % inhib @ conc.” value (@ 1.0 uM) was determined as 89.0% @.

`CS(=O)(=O)NCCCc1[nH]nc(-c2ccc(F)cc2)c1-c1ccncc1` [Example B-1201]: the “P38 alpha kinase % inhib @ conc.” value (@ 1.0 uM) worked out at 84.0% @.

For `CC(NS(=O)(=O)c1ccc2ccccc2c1)c1[nH]nc(-c2ccc(F)cc2)c1-c1ccncc1` (stereo not shown) [Example B-0617], under setting [1], the IC50 came out at 45 nM.

For the compound `Cc1ccc(C)c(S(=O)(=O)NCCc2[nH]nc(-c3ccc(F)cc3)c2-c2ccncc2)c1` [Example B-1096], the IC50 under setting [1] was under 100 nM.

For the compound `CCS(=O)(=O)NCCCc1[nH]nc(-c2ccc(F)cc2)c1-c1ccncc1` [Example B-1200], the “P38 alpha kinase % inhib @ conc.” value (@ 1.0 uM) is 95.0% @.

`O=S(=O)(NCCc1[nH]nc(-c2ccc(F)cc2)c1-c1ccncc1)c1cccc(Cl)c1` [Example B-1090]: the IC50 under setting [1] was under 100 nM.

As for `Cc1c(-c2ccncc2)c(-c2ccc(F)cc2)nn1CC(=O)NCCCOC(C)C` [Example B-2313], for the setting “in vitro P38-alpha kinase”, the IC50 was found to be 42300 nM.

Regarding `Cc1c(-c2ccncc2)c(-c2ccc(F)cc2)nn1CC(=O)Nc1cccc(SC(F)(F)F)c1` [Example B-2459], the “P38 alpha kinase IC50, uM or % inhib @ conc. (uM): % inhib” value (@ 10.0 uM) is reported as 82.0% @.

On to `CN(C)C(=O)NCCc1[nH]nc(-c2ccc(F)cc2)c1-c1ccncc1` [Example B-1035], for which, under “@ 1.0 uM”, the “P38 alpha kinase % inhib @ conc. (uM)” value is 75.0% @.

Regarding `CC(=O)N1CCN(C(=O)Cn2nc(-c3ccc(F)cc3)c(-c3ccncc3)c2C)CC1` [Example B-2380], under “@ 100.0 uM”, the “P38 alpha kinase % inhib @ conc.” value was 81% @.

Regarding `Cc1c(-c2ccncc2)c(-c2ccc(F)cc2)nn1CC(=O)NC1CCCCC1C1CCCCC1` (stereo not shown) [Example B-2346], the “P38 alpha kinase % inhib @ conc.” value (@ 10.0 uM) is 45.0% @.

As for `CCCCOc1ccc(S(=O)(=O)NC(C)c2[nH]nc(-c3ccc(F)cc3)c2-c2ccncc2)cc1` (stereo not shown) [Example B-0456], the IC50 under setting [1] was 1310 nM.

Turning to `CC(NC(=O)c1ccccn1)c1[nH]nc(-c2ccc(F)cc2)c1-c1ccncc1` (stereo not shown) [Example B-0556], the IC50 under setting [1] came to 490 nM.

Regarding `CC(C)c1cc(C(C)C)c(C(=O)NCCCc2[nH]nc(-c3ccc(F)cc3)c2-c2ccncc2)c(C(C)C)c1` [Example B-1326], the IC50 (in vitro P38-alpha kinase) is 92 nM.
